Assay results published in US6544789B1, “Phosphorus-controllable recombinant expression of polypeptides in plants” (Board of Trustees, Rutgers, The State University of New …, priority 2000, dated 2003).

What was measured:
APase promoter = assay: GUS expression in Pr-GUS transformants grown in sand culture (specificity of APase promoter induction); assay type: in vivo, Arabidopsis thaliana; design: key to relative GUS expression: “−” (lowest); “+/−,”; “+,”; “++,”; “+++” (highest); settings: for relative GUS expression: 100 μM, 14-day-old seedlings
Description: A screening method was developed to evaluate GUS expression levels in the various transformed lines: T2 seedlings were germinated in pots containing fine granules of washed sand (40-100 mesh Fisher Scientific, Pittsburgh, Pa.). To remove trace amounts of contaminating elements, the sand was previously washed by soaking it in 0.1 M HCl for 45 minutes and then washing it extensively with ddH2O until the sand mixture reached pH 6.5. Seedlings were grown in standard phosphorus medium for 14 days before transfer to phosphorus-deficient medium. GUS expression in plants subjected to phosphorus-deficient conditions for 14 days is shown in FIGS. 4A-4D (FIG. 4A—lateral root primordium with localized GUS expression, FIG. 4B—GUS expression in several cell layers of lateral root primordium; FIG. 4C—emerging lateral root meristem; FIG. 4D—lateral root meristems (LRM) and an apical root meristem (ARM)). Seedlings were also germinated in pots containing washed sand, and then fertilized using 0.25×Hoagland's medium with or without phosphorus (0.25 mM), and examined after 10 days. GUS expression in the roots of these seedlings (FIG. 4F) or in the whole seedlings (FIG. 4G—not starved; FIG. 4H—starved) is shown. Phosphorus starvation symptoms were evident 8 days after sowing. Plant expression was examined by staining with x-gluc (i.e., 5-bromo-4-chloro-3-indolyl β-D-glucuronide), as described below, to evaluate GUS expression.
GUS activity was determined according to the method of Jefferson et al., EMBO J. 6:3901-3907 (1987). After staining, tissue was fixed in 1.5% formaldehyde-4% acetic acid-30% ethanol for 30 minutes, dehydrated through a graded ethanol series (50, 95, 100% for 20 minutes at each step), incubated 2 hours at 100% ethanol, and rehydrated through a graded ethanol series (95 and 50%, for 20 minutes each step). Rehydrated tissues were stored in H2O.
Pr-GUS transformants, germinated and grown in sand culture, were used to test the specificity of APase promoter induction by either inducing nutritional deficiencies other than P-limitation or by using such known chemical inducers of gene expression as salicylic acid (Ward et al., Plant Cell 3:1085-1094 (1991)) and jasmonic acids (Staswick, et al., Plant Physiol 96:130-136 (1991), Creelman et al., New Phytol. 75:479-490 (1992)) (Tables 1 and 2). Seedlings were germinated in pots containing washed sand and fertilized with modified 0.25×Hoagland's medium optionally lacking nitrogen (N), potassium (K), or iron (Fe). Nitrogen-free Hoagland's medium was prepared by substituting K2HPO4 for (NH4)2SO4, CaSO4 for Ca(NO3)2 and K2SO4 for KNO3. Potassium-free Hoagland's medium was prepared by substituting NaNO3 for KNO3. Iron deficient medium was prepared by removing Fe-EDTA from the medium composition. Aqueous solutions of salicylic acid (SA), jasmonic acid (JA), and mannose were supplied to 14-day-old seedlings by spraying until solutions ran off the seedlings; approximately 20 ml of 2.5-fold concentrated solution was added to the sand at the same time.
Both chemical inducers were applied at concentrations capable of strongly inducing a variety of plant genes. These treatments were compared to the effects of P removal (Table 1, where “P” is phosphorus, N is nitrogen, K is potassium, and Fe is iron, “+” indicates presence and “−” indicates absence, and relative expression is indicated on a scale of “−” (lowest), “+/−,” “+,” “++,” to “+++” (highest)) or the addition of mannose (Table 2, where is indicated on a scale of “−” (lowest), “+/−,” “+,” “++,” to “+++” (highest)). Mannose is known to induce P deficiency in plant cells by virtue of its ability to bind cellular phosphates as mannose 6-phosphate (Watkins, et al., Plant Physiol. 97:139-146 (1987)), thereby acting as an agent that associates with a phosphorus compound. […] Seventeen days after sowing, the experiment was terminated.

acid phosphatase (APase) = assay: APase activity in growth medium of B. juncea plants (p-NPP substrate, 410 nm); assay type: in vivo, Brassica juncea; settings: after 6 days incubation
Description: Expression and secretion studies of B. juncea began with the germination of B. juncea seeds in Petri dishes on Gamborg's B-5 (Life Technologies, Gibco BRL, Grand Island, N.Y.) agar medium. Germinated seedlings were then transferred to 20 ml vials containing one-quarter-strength Hoagland's solution (Arnon et al., Soil Sci. 50:463-483 (1940)). Plants were grown in shaker-incubators (25 rpm), at 24° C. under a 16-hour photoperiod, with 150 mE/m^2/s illumination provided by a mixture of fluorescent and incandescent lamps. After 10 days, plants were transferred into 125 ml flasks with 120 ml of 0.25×Hoagland solution containing one of the following concentrations of phosphorus: 3 mM, 1 mM, 0.25 mM or 0.01 mM (i.e., phosphorus deficiency). In the low phosphorus medium, (NH4)2SO4 was substituted for NH4H2PO4. The volume of medium in each flask was adjusted daily to 120 ml and the exudate-containing media were sampled for APase activity.
Unconcentrated media samples were subjected to chromogenic determination at 410 nm. The activity of APase in the growth medium was determined using p-nitrophenyl-1-phosphate (p-NPP, Sigma Chemical Co., St. Louis, Mo.) as substrate and 50 mM Na-acetate buffer, pH 4.6, in a water bath at 37° C. (Ascencio, J., J. Plant Nutr. 20:9-26 (1997)). The reaction was stopped after 1 hour with a 1 M Na2CO3 solution and the yellow p-nitrophenol (PNP) was measured at 410 nm in a DU 640 Spectrophotometer (Beckman Instruments, Columbia, Md.). […] Thus, expression of the exuded A. thaliana APase was de-repressed by phosphorus starvation.

| SMILES | relative GUS expression (APase promoter; 1 day after treatment) | relative GUS expression (APase promoter; 3 days after treatment) | relative GUS expression (APase promoter; 5 days after treatment) | relative GUS expression (APase promoter; 7 days after treatment) | APase activity in exudate-containing medium (acid phosphatase (APase); 0.01 mM phosphorus) | APase activity in exudate-containing medium (acid phosphatase (APase); 0.25 mM phosphorus) | APase activity in exudate-containing medium (acid phosphatase (APase); 1 mM phosphorus) | APase activity in exudate-containing medium (acid phosphatase (APase); 3 mM phosphorus) | expression of GUS on addition of phosphorus to the medium (APase promoter; phosphorus-starved plants) |
| --- | --- | --- | --- | --- | --- | --- | --- | --- | --- |
| CC/C=C\C[C@H]1C(=O)CC[C@@H]1CC(=O)O [jasmonic acid] | − | − | − | − |  |  |  |  |  |
| [P] [phosphorus] |  |  |  |  | ~0.33 A410/(ml-hour) | ~0.21 A410/(ml-hour) | ~0.09 A410/(ml-hour) | approximately 0.04 A410/(ml-hour) | diminished |
| O=C(O)c1ccccc1O [salicylic acid] | − | + | − | +/− |  |  |  |  |  |
